# Measurements reported in patent US4725600A, “Pyrimidine compounds having activity as a cardiotonic anti-hypertensive cerebrovascular vasodilator and anti-platelet aggregation agent” (Fujisawa Pharmaceutical Co., Ltd., priority 1984, dated 1988).
# Where two headings read alike, the source gives them in different places.
# How the values were obtained:
# Mongrel dogs = experiment: Cardiotonic activity (Test Method A): percentage of dp/dt max change in anesthetized mongrel dogs; type: in vivo; conditions: Canis lupus familiaris, iv, injected into the femoral vein, read-out: dp/dt M.C. (percentage of dp/dt max changes)
# Method: Mongrel dogs of either sex were anesthetized with sodium pentobarbital, 35 mg/kg, i.p. The animals were allowed to breathe spontaneously. The left carotid artery was isolated and a catheter (USCI, #8F) filled with heparinized saline was inserted and advanced into the left ventricle. The catheter was connected to a pressure transducer (Nihonkohden, MPU-0.5A) to measure the left ventricular pressure, from which dp/dt max was derived by analog computing. To measure the systemic blood pressure the left femoral artery was cannulated. The blood pressure pulse was used to trigger a heart rate meter. Another catheter was positioned in the vena cave through right femoral vein for injection of drugs. Systemic blood pressure, left ventricular pressure, dp/dt max and heart rate were recorded simultaneously on a polygram (Nihonkohden, RJG-4008).
# Test compound was dissolved in distilled water (0.2 ml/kg) or dimethyl sulfoxide (0.04 ml/kg) and injected into the femoral vein. The parameters after dosing were compared with those during the predosing period.
# Test results were represented in terms of percentage of dp/dt max changes (dp/dt M.C.) calculated by following formula, and are shown in table 1. [formula]
# [1] = test system: Platelet rich plasma (PRP); experiment: Anti-platelet activity (Test Method B): inhibition of ADP- or collagen-induced aggregation in rabbit platelet rich plasma; type: cell-based; conditions: Oryctolagus cuniculus, 37° C.
# Method: Platelet rich plasma (PRP) which contains 6.5-7.5×10^8 platelet/ml was prepared from rabbit blood. To the 200 μl of PRP, 5 μl of calcium chloride (1 mM) and 50 μl of pH 7.4 Tris-acetate solution (5 mM) containing 120 mM NaCl and test compound were added successively, and then stirred for 2 min. at 37° C. To the solution 5 μl of adenosine diphosphate (ADP) (2.5 μM) or collagen (2.5 μg/ml) was added as an agregation inducer. Aggregation was measured by using an aggregometer (NKK HEMA TRACER 1).
# male Wistar rats (DOCA) = experiment: Antihypertensive activity (Test Method C): maximum decrease of blood pressure in DOCA-treated uninephrectomized rats; type: in vivo; conditions: 1.0 mg/kg, oral; DOCA hypertensive rats, mean arterial pressure
# Method: Antihypertensive activity
# Five-week old male Wistar rats were uninephrectomized under anesthesia. Deoxycorticosterone acetate (DOCA) (30 mg/kg), suspended in peanut oil, was injected subcutaneously twice a week and 1% saline was substituted for the drinking water. Animals with mean blood pressure 150-200 mmHg were used for experiment between 5 and 7 weeks after surgery.
# The test compounds were administered orally. Blood pressure was measured at the femoral artery by means of a pressure transducer and recorded as electrically integrated values of mean arterial pressure.
Compound,change in vivo at 0.1 mg/kg (Mongrel dogs),also measured
"COc1ccc(-c2cc(=Nc3c(C)cc(C)cc3C)n(C)c3nncn23)cc1OC [Example 11, 7,8-dihydro-5-(3,4-dimethoxyphenyl)-8-methyl-7-(2,4,6-trimethylphenylimino)-1,2,4-triazolo[4,3-a]pyrimidine]",60%,
"COc1ccc(-c2cc(=Nc3c(C)cc(C)cc3C)n(C)c(N(C)Cc3ccccc3)n2)cc1OC [Example 3, 3,4-dihydro-6-(3,4-dimethoxyphenyl)-3-methyl-2-(N-methyl-N-benzylamino)-4-(2,4,6-trimethylphenylimino)pyrimidine]",29%,
"CCn1c(C)nc(-c2ccc(OC)c(OC)c2)cc1=Nc1c(C)cc(C)cc1C [Examples (17-12) and (19-12), 3,4-Dihydro-6-(3,4-dimethoxyphenyl)-3-ethyl-2-methyl-4-(2,4,6-trimethylphenylimino)pyrimidine]",87%,
"Nc1cc(-c2ccncc2)c[nH]c1=O [Amrinone, 3-Amino-5-(4-pyridyl)-2(1H)-pyridinone, reference compound]",9%,
"COc1ccc(-c2cc(=Nc3c(C)cc(C)cc3C)n(C)c(C)n2)cc1OC [Example 18, 3,4-dihydro-6-(3,4-dimethoxyphenyl)-2,3-dimethyl-4-(2,4,6-trimethylphenylimino)pyrimidine]",72%,
"COc1ccc(-c2cc(N(C)c3c(C)cc(C)cc3C)nc(C)n2)cc1OC [Examples (17-6) and 20, 6-(3,4-dimethoxyphenyl)-2-methyl-4-[N-methyl-N-(2,4,6-trimethylphenyl)amino]pyrimidine]",76%,
"COc1ccc(-c2cc(=Nc3c(C)cc(C)cc3C)n(C)c(Cl)n2)cc1OC [Example 1, 2-chloro-3,4-dihydro-6-(3,4-dimethoxyphenyl)-3-methyl-4-(2,4,6-trimethylphenylimino)pyrimidine]",45%,
"COc1ccc(-c2cc(=Nc3c(C)cc(C)cc3C)n(C)c3nnnn23)cc1OC [Example 12, 4,5-dihydro-7-(3,4-dimethoxyphenyl)-4-methyl-5-(2,4,6-trimethylphenylimino)tetrazolo[1,5-a]pyrimidine]",152%,
"COc1ccc(-c2cc(=Nc3c(C)cc(C)cc3C)n(C)cn2)cc1OC [Example 2, 3,4-dihydro-6-(3,4-dimethoxyphenyl)-3-methyl-4-(2,4,6-trimethylphenylimino)pyrimidine]",114%,"IC50 ([1]; aggregation inducer ADP (2.5 μM), pH 7.4, read-out: ID50, ADP): 260 nM; IC50 ([1]; aggregation inducer collagen (2.5 μg/ml), pH 7.4, read-out: ID50, Collagen): 360 nM; Effect Max (mean ratio of maximum decrease of blood pressure) (male Wistar rats (DOCA)): 39.0%"
